Values joined by “and” are separate entries in the source; they are usually repeats but may differ in a detail not shown here. Equal entries are not always repeated. Where two headings read alike, the source gives them in different places.
Tested on: patients with ALS
[1] = 50 mg, through the end of the study
[2] = 300 mg, No Riluzole Use, through Week 28
[3] = 300 mg, Riluzole Use, through Week 28
[4] = 300 mg, any post-baseline visit
[5] = 300 mg, double-blind treatment period
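Also: adverse event data gathered at every clinic visit and phone contact, after first study drug dose, in a blinded trial, counts of affected subjects.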

Q: Which “≧1 serious treatment-related TEAE” value [1] does the source give for `CCCN[C@@H]1CCc2nc(N)sc2C1` [dexpramipexole, (6R)-2-amino-4,5,6,7-tetrahydro-6-(propylamino)benzothiazole] here?
A: 1 (2%) N (%)

Q: What about the “≧1 severe TEAE” value [1] of the same molecule?
A: 13 N (%) and 13 (27%) N (%)

Q: And the “≧1 treatment-related TEAE” value [1]?
A: 16 (33%) N (%)

Q: What about the “subjects with increase from baseline in QTcF >30 msec” value (300 mg) of the same molecule?
A: 5 subjects

Q: And the “AE: Anxiety” value [2]?
A: 1 (7%) N (%)

Q: And the “AE: Depression” value [2]?
A: 1 (7%) N (%)

Q: What about the “AE: Dysarthria” value [2] of the same molecule?
A: 2 (13%) N (%)

Q: What about the “AE: Dysphagia” value [2] of the same molecule?
A: 2 (13%) N (%)

Q: What about the “AE: Fall” value [2] of the same molecule?
A: 4 (27%) N (%)

Q: What about the “AE: Muscular weakness” value [2] of the same molecule?
A: 3 (20%) N (%)

Q: What about the “AE: Nausea” value [2] of the same molecule?
A: 0 N (%)

Q: What about the “AE: Oedema peripheral” value [2] of the same molecule?
A: 0 N (%)

Q: What about the “AE: Pharyngolaryngeal pain” value [2] of the same molecule?
A: 1 (7%) N (%)

Q: And the “AE: Salivary hypersecretion” value [2]?
A: 2 (13%) N (%)

Q: And the “AE: Sinusitis” value [2]?
A: 0 N (%)

Q: And the “AE: Urinary tract infection” value [2]?
A: 1 (7%) N (%)

Q: And the “AE: Anxiety” value [3]?
A: 4 (14%) N (%)

Q: What about the “AE: Depression” value [3] of the same molecule?
A: 4 (14%) N (%)

Q: What about the “AE: Dysarthria” value [3] of the same molecule?
A: 3 (10%) N (%)

Q: And the “AE: Dysphagia” value [3]?
A: 2 (7%) N (%)

Q: What about the “AE: Fall” value [3] of the same molecule?
A: 7 (24%) N (%)

Q: And the “AE: Headache” value [3]?
A: 2 N (%) and 2 (7%) N (%)

Q: What about the “AE: Muscular weakness” value [3] of the same molecule?
A: 4 (14%) N (%)

Q: What about the “AE: Oedema peripheral” value [3] of the same molecule?
A: 1 (3%) N (%)

Q: And the “AE: Pharyngolaryngeal pain” value [3]?
A: 2 (7%) N (%)

Q: What about the “AE: Salivary hypersecretion” value [3] of the same molecule?
A: 3 (10%) N (%)

Q: What about the “AE: Urinary tract infection” value [3] of the same molecule?
A: 3 (10%) N (%)

Q: And the “incidence of ECGs with QTcB increased >30 msec from baseline” value [4]?
A: 30%

Q: What about the “subjects with QTcF interval >450 msec” value [4] of the same molecule?
A: 3 subjects

Q: What about the “AEs related to ALS as assessed by the Investigator” value [5] of the same molecule?
A: 80%

Q: What about the “hemoglobin value in 1 subject (potentially clinically significant)” value [5] of the same molecule?
A: 7.8 g/dL

Q: And the “subjects with prolonged QTcB” value [5]?
A: 3 subjects

Q: And the “subjects with serum chemistry abnormalities of potential clinical significance” value [5]?
A: 4 subjects

Q: What about the “neutrophil count in 1 subject with neutropenia” value (300 mg, noted at baseline of the placebo washout period) of the same molecule?
A: 1180 µL⁻¹

Q: What about the “ALS-related TEAE: Affect liability” value (300 mg, through Week 28) of the same molecule?
A: 0 N (%)

Q: What about the “ALS-related TEAE: Arthralgia” value (300 mg, through Week 28) of the same molecule?
A: 1 (2%) N (%)

Q: What about the “ALS-related TEAE: Choking” value (300 mg, through Week 28) of the same molecule?
A: 0 N (%)

Q: And the “ALS-related TEAE: Constipation” value (300 mg, through Week 28)?
A: 4 (9%) N (%)

Q: What about the “ALS-related TEAE: Contusion” value (300 mg, through Week 28) of the same molecule?
A: 1 (2%) N (%)

Q: What about the “ALS-related TEAE: Dehydration” value (300 mg, through Week 28) of the same molecule?
A: 2 (5%) N (%)

Q: And the “ALS-related TEAE: Depression” value (300 mg, through Week 28)?
A: 1 (2%) N (%)

Q: What about the “ALS-related TEAE: Disease progression” value (300 mg, through Week 28) of the same molecule?
A: 2 (5%) N (%)

Q: And the “ALS-related TEAE: Dysarthria” value (300 mg, through Week 28)?
A: 5 (11%) N (%)

Q: What about the “ALS-related TEAE: Dysphagia” value (300 mg, through Week 28) of the same molecule?
A: 3 (7%) N (%)

Q: What about the “ALS-related TEAE: Dysphasia” value (300 mg, through Week 28) of the same molecule?
A: 1 (2%) N (%)

Q: What about the “ALS-related TEAE: Dyspnoea” value (300 mg, through Week 28) of the same molecule?
A: 5 (11%) N (%)

Q: What about the “ALS-related TEAE: Dyspnoea exertional” value (300 mg, through Week 28) of the same molecule?
A: 2 (5%) N (%)

Q: What about the “ALS-related TEAE: Fall” value (300 mg, through Week 28) of the same molecule?
A: 10 (23%) N (%)

Q: And the “ALS-related TEAE: Fatigue” value (300 mg, through Week 28)?
A: 2 (5%) N (%)

Q: And the “ALS-related TEAE: Gastrointestinal Disorders” value (300 mg, through Week 28)?
A: 11 (25%) N (%)

Q: What about the “ALS-related TEAE: General Disorders and Administration Site Conditions” value (300 mg, through Week 28) of the same molecule?
A: 6 (14%) N (%)

Q: What about the “ALS-related TEAE: Increased upper airway secretion” value (300 mg, through Week 28) of the same molecule?
A: 2 (5%) N (%)

Q: And the “ALS-related TEAE: Injury, Poisoning and Procedural Complications” value (300 mg, through Week 28)?
A: 10 (23%) N (%)

Q: And the “ALS-related TEAE: Investigations” value (300 mg, through Week 28)?
A: 5 (11%) N (%)

Q: And the “ALS-related TEAE: Metabolism and Nutrition Disorders” value (300 mg, through Week 28)?
A: 4 (9%) N (%)

Q: What about the “ALS-related TEAE: Muscle contractions involuntary” value (300 mg, through Week 28) of the same molecule?
A: 2 (5%) N (%)

Q: And the “ALS-related TEAE: Muscle spasticity” value (300 mg, through Week 28)?
A: 1 (2%) N (%)

Q: And the “ALS-related TEAE: Muscle twitching” value (300 mg, through Week 28)?
A: 2 (5%) N (%)

Q: And the “ALS-related TEAE: Muscular weakness” value (300 mg, through Week 28)?
A: 7 (16%) N (%)

Q: What about the “ALS-related TEAE: Musculoskeletal and Connective Tissue Disorders” value (300 mg, through Week 28) of the same molecule?
A: 14 (32%) N (%)

Q: And the “ALS-related TEAE: Musculoskeletal pain” value (300 mg, through Week 28)?
A: 3 (7%) N (%)

Q: And the “ALS-related TEAE: Myalgia” value (300 mg, through Week 28)?
A: 0 N (%)

Q: And the “ALS-related TEAE: Neck pain” value (300 mg, through Week 28)?
A: 1 (2%) N (%)

Q: And the “ALS-related TEAE: Nervous System Disorders” value (300 mg, through Week 28)?
A: 10 (23%) N (%)

Q: And the “ALS-related TEAE: Oedema peripheral” value (300 mg, through Week 28)?
A: 1 (2%) N (%)

Q: What about the “ALS-related TEAE: Pain in extremity” value (300 mg, through Week 28) of the same molecule?
A: 0 N (%)

Q: And the “ALS-related TEAE: Psychiatric Disorders” value (300 mg, through Week 28)?
A: 1 (2%) N (%)

Q: And the “ALS-related TEAE: Respiratory failure” value (300 mg, through Week 28)?
A: 0 N (%)

Q: And the “ALS-related TEAE: Respiratory, Thoracic and Mediastinal Disorders” value (300 mg, through Week 28)?
A: 11 (25%) N (%)

Q: And the “ALS-related TEAE: Salivary hypersecretion” value (300 mg, through Week 28)?
A: 5 (11%) N (%)

Q: What about the “ALS-related TEAE: Vital capacity decreased” value (300 mg, through Week 28) of the same molecule?
A: 1 (2%) N (%)

Q: And the “ALS-related TEAE: Weight decreased” value (300 mg, through Week 28)?
A: 2 (5%) N (%)

Q: What about the “Number of TEAEs” value (300 mg, through Week 28) of the same molecule?
A: 303

Q: And the “Number of serious TEAEs” value (300 mg, through Week 28)?
A: 9

Q: And the “Number of serious treatment-related TEAE” value (300 mg, through Week 28)?
A: 1

Q: And the “Number of severe TEAEs” value (300 mg, through Week 28)?
A: 12

Q: And the “Number of treatment-related TEAEs” value (300 mg, through Week 28)?
A: 46

Q: And the “Subjects with a TEAE with action taken of study drug discontinued” value (300 mg, through Week 28)?
A: 0 N (%)

Q: What about the “TEAE: Anxiety” value (300 mg, through Week 28) of the same molecule?
A: 5 (11%) N (%)

Q: What about the “TEAE: Arthralgia” value (300 mg, through Week 28) of the same molecule?
A: 3 (7%) N (%)

Q: And the “TEAE: Cardiac Disorders” value (300 mg, through Week 28)?
A: 8 (18%) N (%)

Q: And the “TEAE: Constipation” value (300 mg, through Week 28)?
A: 11 (25%) N (%)

Source: patent US20130245081A1, “Compositions and Methods for Treating Amyotrophic Lateral Sclerosis” (priority 2009, published 2013)
